Reference: patent US12109184B2, “Personalized methods of treating cancer” (CANCER RESEARCH TECHNOLOGY LIMITED, priority 2020, dated 2024)
“Also recorded” adds a separate entry of the source.

Key:
Format in all cases: cell-based
[1] = system: MTAP-deleted HCT116 cells; test: Cell counting during cysteine starvation, MTAP-deleted HCT116; conditions: −Cys, low levels of methionine
From the text: [NT] Successfully transfected cells were selected with puromycin and grown as clonal colonies. Clones were selected based initially on MTA efflux measured by liquid chromatography mass spectrometry (LC-MS). Clones with greatest MTA efflux were selected, and methylthioadenosine phosphorylase knockout (MTAP-KO) was then confirmed by western blot. MTAP-KO HCT116 cells were transfected with pCMV-Hygro-MTAP and pCMV-Hygro-negative control vector, selected using hygromycin B, and grown as clonal colonies. Clones were selected based initially on MTA efflux measured by LC-MS. Clones with low MTA efflux were selected, then MTAP re-expression was confirmed by western blot. […] DAPI-stained cell nuclei were detected via microscopy. […] For experiments using spermine oxidase (SMOX) and polyamine oxidase (PAOX) inhibitors or MTOB, cells were pre-treated with stated concentrations for 16 hours in complete medium. After pre-treatment, cells were washed in PBS, and treatment was continued in complete or cysteine-free medium for stated times. After treatment was finished, cells were fixed and stained as described above. For experiments using MTA, polyamines, GPX4 and CSE inhibitors, treatment started at the same time as cysteine starvation. For experiments involving hypoxic conditions, cells were seeded in normoxic conditions and allowed to adhere for 24 hours before control and cysteine starvation medium was added and cells were immediately transferred either to a humidified cell culture incubator set to 37° C. in 20% O2 (normoxia), or a hypoxia chamber set to 37° C. in 1% O2 (hypoxia) for the stated times. Cells were fixed immediately and stained as described above.

[2] = system: SW480 and MDA-MB-231 cells; test: Cell counting, rescue by cysteine precursors during cysteine starvation; conditions: supplement at 0.8 mM
Procedure: HCT116, SW480, MDA-MB-468, MDA-MB-231, AsPC-1, BxPC-3, CFPAC-1, MIAPaCa-2, PANC-1, Panc10.05, SW1990, U-251, LN-18, LN-229, T98G, U-343, A-172 cells were used. Cell lines were authenticated using Short Tandem Repeat (STR) profiling and tested for mycoplasma. Colorectal and breast cancer cell lines were grown in Dulbecco's Modified Eagle Medium (DMEM), pancreatic ductal adenocarcinoma (PDAC) cell lines were grown in Roswell Park Memorial institute (RPMI) 1640. All cell lines were supplemented with penicillin-streptomycin, amphotericin, 2 mM L-glutamine, and 10% fetal bovine serum (FBS). Cells were kept at 37° C. in 5% CO2 in a humidified cell culture incubator. A formulated medium lacking cysteine, cystine, methionine, and serine was used as a base for creating experimental media. The base medium formulation contained 0.2 mM L-histidine, 0.4 mM L-isoleucine, 0.4 mM L-leucine, 0.4 mM L-lysine, 0.2 mM L-phenylalanine, 0.4 mM L-threonine, 0.08 mM L-tryptophan, 0.4 mM L-valine, 0.2 mM L-arginine, 2 mM L-glutamine, 0.2 mM L-tyrosine, 0.4 mM L-alanine, 0.3 mM L-proline, 0.15 mM L-glutamic acid, 0.1 mM L-aspartic acid, 0.2 mM L-asparagine, and 0.4 mM glycine. The base medium was supplemented with 10% dialyzed FBS, penicillin-streptomycin, and amphotericin. To ensure an adequate supply of vitamin B6 (a crucial co-factor for de novo cysteine synthesis), base medium was supplemented with additional 20 μM vitamin B6. The control experimental medium was the base medium supplemented with 0.4 mM L-cysteine, 0.2 mM L-methionine, and 0.4 mM L-serine. The cysteine starvation (−Cys) experimental medium was base medium supplemented with 0.2 mM L-methionine and 0.4 mM L-serine.
Cells were seeded at 6×10^4 cells per well into 24-well plates (triplicate wells per condition) in the relevant complete medium and adhered for a full 24-hour period. A ‘time-0’ plate was included to record the starting cell number to calculate relative cell numbers. Cells were washed once with phosphate-buffered saline (PBS) before receiving experimental medium containing or lacking the specified amino acids, metabolites, or drugs. At the stated time-points the medium was removed, cells were fixed in a 4% formalin-PBS solution. Cells were then washed and stored in PBS before staining with 4′,6-diamidino-2-phenylindole (DAPI)-Triton™ X100-PBS solution for 1 hour, followed by storage in PBS at 4° C. until further analysis. DAPI-stained cell nuclei were detected via microscopy.
Homocysteine, cystathionine, glutathione, putrescine, spermine, spermidine, GPX4 inhibitor ML210, SMOX inhibitor MDL 72527, PAOX inhibitor diminazene aceturate, ferrostatin-1 and erastin were used. AMD1 inhibitor sardomozide/SAM486A, GPX4 inhibitor RSL3, and CSE inhibitor beta-cyano-L-alanine were used. […]

[3] = system: breast, colorectal and pancreatic cancer cell lines; test: Cell counting in complete or cysteine-free medium, cell lines not given; conditions: supplementation during cysteine starvation

## CSCC[C@H](N)C(=O)O [methionine]
[1]
  effect of methionine on survival during cysteine starvation: inhibited the ability of MTAP deleted cells to survive
[2]
  restoration of proliferation during cysteine starvation: no rescue
[3]
  rescue from cysteine starvation-induced cell death (summary in discussion): unable to provide rescue; also recorded: did not
